Structures can show the parent of a compound that is named as a salt.

The test system of data set [1] is GABA uptake from the synaptic cleft into presynaptic nerve terminals and glial cells. Conditions: background statement; cited from earlier work.
The conditions of data set [2]: background statement; cited from earlier work.
For data set [3], the system named is [^3 H]-GABA uptake. As to the kind of experiment: In vitro inhibition of [^3 H]-GABA uptake in rat cortical tissue. Format: biochemical, Male wistar rat. The conditions noted are these: rat cortical tissue homogenate, pH 7.5, 60 minutes at 30° C. The method, then:
Values for in vitro inhibition of [^3 H]-GABA uptake for the invention compounds were assessed essentially by the method of Fjalland (Acta Pharmacol. Toxicol. 1978, 42, 73-76). Male wistar rat cortical tissue was gently homogenized by hand using a glass/PTFE homogenizer in 10 volumes of 0.32M sucrose. Incubation was performed in a 40 mM tris HCl buffer (pH 7.5 at 30° C.) containing […], 4 mM MgSO4, […] and 10 mM glucose, for 60 minutes at 30° C. Values for inhibition of GABA uptake for some representative compounds are recorded in Table I.

Data set [4] deals with GABA uptake. The conditions noted are these: oral; Yunger, L. M. et al., 1984; cited from earlier work.

As for `O=C(O)C1CCCNC1` (centres unmarked) [3-piperidinecarboxylic acid], the “inhibitor of GABA uptake” value in data set [1] was “well-known and potent inhibitor of GABA uptake”. For the same compound, the “cross the blood-brain barrier” value in data set [2] is “unable to cross the blood-brain barrier”. `O=C(O)[C@@H]1CCCN(CCON=C2CCCCC2c2ccccc2)C1` (stereo partly drawn) [Example 1, (R)-1-(2-(((2-Phenylcyclohexylidene)amino)oxy)ethyl)-3-piperidinecarboxylicacid hydrochloride] displayed an IC50 in data set [3] of 332 nM. Still for that read-out and setting: next, `O=C(O)[C@@H]1CCCN(CCON=C2CCCC=C2c2ccccc2)C1` [Example 2, (R)-1-(2-(((2-Phenylcyclohex-2-enylidene)amino)oxy)ethyl)-3-piperidinecarboxylic acid hydrochloride]: 417 nM; `O=C(O)[C@@H]1CCCN(CCON=C2c3ccccc3CCC2c2ccccc2)C1` (stereo partly drawn) [Example 4, (R)-1-(2-(((2-Phenyl-1,2,3,4-tetrahydro-1-naphthylidene)amino)oxy)ethyl)-3-piperidinecarboxylic acid hydrochloride]: 819 nM; `O=C(O)[C@@H]1CCCN(CCON=C2CC(c3ccccc3)c3ccccc32)C1` (stereo partly drawn) [Example 5, (R)-1-(2-(((3-Phenyl-1-indanylidene)amino)oxy)ethyl)-3-piperidinecarboxylicacid hydrochloride]: 1380 nM. For the compound `O=C(O)C1CCCN(CCC=C(c2ccccc2)c2ccccc2)C1` (centres unmarked) [SK&F 89976A, N-(4,4-diphenyl-3-buten-1-yl)nipecotic acid], in data set [4], the “orally active inhibitors of GABA uptake” value is reported as “orally active inhibitors of GABA uptake”.

As for `O=C(O)C1=CCCN(CCC=C(c2ccccc2)c2ccccc2)C1` [SK&F 100330A, N-(4,4-diphenyl-3-buten-1-yl)guvacine], in data set [4], the “orally active inhibitors of GABA uptake” value is “orally active inhibitors of GABA uptake”.

For `O=C(O)CC1CCN(CCC=C(c2ccccc2)c2ccccc2)C1` (stereo not drawn) [SK&F 100561, N-(4,4-diphenyl-3-buten-1-yl)-homo-β-proline], the “orally active inhibitors of GABA uptake” value in data set [4] is on record as “orally active inhibitors of GABA uptake”.

Turning to `O=C(O)C1CCCN(CCC=C(c2ccccc2)c2cccs2)C1` (centres unmarked) [SK&F 100604J, N-(4-phenyl-4-(2-thienyl)-3-buten-1-yl)nipecotic acid], in data set [4], the “orally active inhibitors of GABA uptake” value is given as “orally active inhibitors of GABA uptake”.

“(R)-1-(2-(((2-(Benzylidene)cyclohexylidene)amino)oxy)ethyl)-3-piperidinecarboxylic acid hydrochloride [Example 3]” came in with an IC50 in data set [3] of 9500 nM.

The IC50 is the point on the concentration scale where inhibition reaches its midpoint.

(Values after patent US5639766A, “N-substituted azaheterocyclic carboxylic acids and esters thereof” (Novo Nordisk A/S, priority 1993, dated 1997).)
